# How the values were obtained:
# [1] = Blood concentrations in mice after inhalation of "Magic Gold" smoke; format: in vivo, C57BL6 mice
# Post-preparative = format: physicochemical; settings: extracted samples stored in the auto-sampler 72 h at room temperature
# [2] = Brain concentrations in mice after inhalation of "Magic Gold" smoke; format: in vivo, C57BL6 mice
# [3] = positive samples among 80 subjects (JWH-018 in 9, JWH-073 in 6); cited from earlier work
# [4] = next specimen collected 18 h later (after the 6 h sample); cited from earlier work
SMILES,JWH-073 blood concentration higher than JWH-018 (mean increase) ([1]; 20 min after exposure) [%],Degradation (auto-sampler stability) (Post-preparative),JWH-073 brain concentration higher than JWH-018 (mean increase) ([2]; 20 min after exposure) [%],"Brain concentration (range) ([2]; 20 h post exposure, five mice)",Serum concentration (mean) [3] [ng/mL],Serum detection [4],Detection in blood samples ([1]; 20 min and 20 h after exposure),Detection in brain samples ([2]; 20 min and 20 h after exposure)
"CCCCn1cc(C(=O)c2cccc3ccccc23)c2ccccc21 [JWH-073, Naphthalen-1-yl-(1-butylindol-3-yl)methanone]",53,approximately 20%,84,not detected,0.42,–,–,–
"CCCCCn1cc(C(=O)c2cccc3ccccc23)c2ccccc21 [JWH-018, Naphthalen-1-yl-(1-pentylindol-3-yl)methanone]",–,–,–,–,1.84,undetectable,–,–
"CCCCCn1cc(C(=O)c2ccc(Cl)c3ccccc23)c2ccccc21 [JWH-398, 4-chloronaphthalen-1-yl-(1-penty-lindolin-3-yl)methanone]",–,–,–,–,–,–,not detected,not detected

# Source: PMC3677765 (Forensic science international, 2012)
